Reference: ChEMBL document CHEMBL1128913, “Synthesis and in vitro cytotoxicity of cryptophycins and related analogs” (Bioorg Med Chem Lett, 1996)
Converted amounts (≈) assume the structure as drawn.

Legend:
Type in all cases: functional, cell-based
[1] = tested on: KB; assay: Cytotoxic activity against KB human nasopharyngeal carcinoma cells
[2] = tested on: HT-29; assay: Cytotoxic activity against HT-29 human colon adenocarcinoma cells
[3] = tested on: DA-3 cell line; assay: Cytotoxic activity against DA-3 mouse mammary adenocarcinoma cells
[4] = tested on: B16-F10; assay: Cytotoxic activity against B16F10 mouse melanoma cells
[5] = tested on: KB; assay: Cytotoxic activity against KBV vinblastine resistant KB cells; conditions: Homo sapiens
[6] = tested on: KB; assay: Cytotoxic activity against Human nasopharyngeal KB cell line

Row | Compound | IC50 [1] [nM] | IC50 [2] [nM] | IC50 [3] [nM] | IC50 [4] [nM] | IC50 [5] [nM] | IC50 [6] [ng/mL]
1 | COc1ccc(C[C@H]2NC(=O)/C=C/C[C@@H](C(O)/C=C/c3ccccc3)OC(=O)[C@H](CC(C)C)OC(=O)CCNC2=O)cc1 (stereo partly specified) | > 10 | > 10 | > 10 | > 10 | > 10 | –
2 | COc1ccc(C[C@H]2NC(=O)/C=C/C[C@@H](C(O)CCc3ccccc3)OC(=O)[C@H](CC(C)C)OC(=O)CCNC2=O)cc1 (stereo partly specified) | > 10 | > 10 | > 10 | > 10 | > 10 | –
3 | COc1ccc(C[C@H]2NC(=O)/C=C/C[C@@H](C/C=C/c3ccccc3)OC(=O)[C@H](CC(C)C)OC(=O)[C@H](C)CNC2=O)cc1Cl | > 10 | > 10 | > 10 | > 10 | > 10 | –
4 | COc1ccc(C[C@H]2NC(=O)/C=C/C[C@@H]([C@@H](C)/C=C/c3ccccc3)OC(=O)[C@H](CC(C)C)OC(=O)[C@H](C)CNC2=O)cc1 | > 10 | > 10 | > 10 | > 10 | > 10 | –
5 | COc1ccc(C[C@H]2NC(=O)/C=C/C[C@@H](C(C#Cc3ccccc3)OS(C)(=O)=O)OC(=O)[C@H](CC(C)C)OC(=O)[C@H](C)CNC2=O)cc1 (stereo partly specified) | > 10 | > 10 | > 10 | > 10 | > 10 | –
6 | COc1ccc(C[C@H]2NC(=O)/C=C/C[C@@H](CCCc3ccccc3)OC(=O)[C@H](CC(C)C)OC(=O)CCNC2=O)cc1Cl | > 10 | > 10 | > 10 | > 10 | > 10 | –
7 | COc1ccc(C[C@H]2NC(=O)/C=C/C[C@@H](C(Br)C#Cc3ccccc3)OC(=O)[C@H](CC(C)C)OC(=O)[C@H](C)CNC2=O)cc1 (stereo partly specified) | > 10 | > 10 | > 10 | > 10 | > 10 | –
8 | COc1ccc(C[C@H]2NC(=O)/C=C/C[C@@H](C(O)/C=C/c3ccccc3)OC(=O)[C@H](CC(C)C)OC(=O)[C@H](C)CNC2=O)cc1 (stereo partly specified) | > 10 | > 10 | > 10 | > 10 | > 10 | –
9 | COc1ccc(C[C@H]2NC(=O)/C=C/C[C@@H]([C@H](C)[C@H]3O[C@@H]3c3ccccc3)OC(=O)[C@H](CC(C)C)OC(=O)[C@H](C)CNC2=O)cc1Cl [CRYPTOPHYCIN A] | 0.004 | 0.002 | 0.002 | 0.03 | 0.035 | 0.005 (≈ 0.00763 nM)
10 | COc1ccc(C[C@H]2NC(=O)/C=C/C[C@@H]([C@](C)(O)/C=C\c3ccccc3)OC(=O)[C@H](CC(C)C)OC(=O)CCNC2=O)cc1 | > 10 | > 10 | > 10 | > 10 | > 10 | –
11 | COc1ccc(C[C@H]2NC(=O)/C=C/C[C@@H](C(=O)CCc3ccccc3)OC(=O)[C@H](CC(C)C)OC(=O)CCNC2=O)cc1 | > 10 | > 10 | > 10 | > 10 | > 10 | –
12 | COc1ccc(C[C@H]2NC(=O)/C=C/C[C@@H]([C@@](C)(O)C#Cc3ccccc3)OC(=O)[C@H](CC(C)C)OC(=O)CCNC2=O)cc1 | > 10 | > 10 | > 10 | > 10 | > 10 | –
13 | COc1ccc(C[C@H]2NC(=O)/C=C/C[C@@H](C(/C=C/c3ccccc3)OC(C)=O)OC(=O)[C@H](CC(C)C)OC(=O)[C@H](C)CNC2=O)cc1 (stereo partly specified) | > 10 | > 10 | > 10 | > 10 | > 10 | –
14 | COc1ccc(C[C@H]2NC(=O)/C=C/C[C@@H]([C@H](C)[C@H]3O[C@@H]3c3ccccc3)OC(=O)[C@H](CC(C)C)OC(=O)[C@H](C)CNC2=O)cc1 | 0.3 | 0.3 | 0.2 | 0.3 | 0.8 | –
15 | COc1ccc(C[C@H]2NC(=O)/C=C/C[C@@H](C[C@H]3O[C@@H]3c3ccccc3)OC(=O)[C@H](CC(C)C)OC(=O)[C@H](C)CNC2=O)cc1 | 6 | 4 | 3 | > 10 | > 10 | –
16 | COc1ccc(C[C@H]2NC(=O)/C=C/C[C@@H](C(Br)C#Cc3ccccc3)OC(=O)[C@H](CC(C)C)OC(=O)[C@@H](C)CNC2=O)cc1 (stereo partly specified) | > 10 | > 10 | > 10 | > 10 | > 10 | –
17 | COc1ccc(C[C@H]2NC(=O)/C=C/C[C@@H](C(=O)C#Cc3ccccc3)OC(=O)[C@H](CC(C)C)OC(=O)[C@H](C)CNC2=O)cc1 | > 10 | > 10 | > 10 | > 10 | > 10 | –
18 | COc1ccc(C[C@H]2NC(=O)/C=C/C[C@@H](C(Br)C#Cc3ccccc3)OC(=O)[C@H](CC(C)C)OC(=O)CCNC2=O)cc1 (stereo partly specified) | > 10 | > 10 | > 10 | > 10 | > 10 | –
19 | COc1ccc(C[C@H]2NC(=O)/C=C/C[C@@H](CCCc3ccccc3)OC(=O)[C@H](CC(C)C)OC(=O)CCNC2=O)cc1 | > 10 | > 10 | > 10 | > 10 | > 10 | –

Row | Compound | IC50 [1] [nM] | IC50 [2] [nM] | IC50 [3] [nM] | IC50 [4] [nM] | IC50 [5] [nM] | IC50 [6] [ng/mL]
20 | COc1ccc(C[C@H]2NC(=O)/C=C/C[C@@H](C(O)C#Cc3ccccc3)OC(=O)[C@H](CC(C)C)OC(=O)CCNC2=O)cc1 (stereo partly specified) | > 10 | > 10 | > 10 | > 10 | > 10 | –
21 | COc1ccc(C[C@H]2NC(=O)/C=C/C[C@@H]([C@@](C)(O)/C=C\c3ccccc3)OC(=O)[C@H](CC(C)C)OC(=O)CCNC2=O)cc1 | > 10 | > 10 | > 10 | > 10 | > 10 | –
22 | COc1ccc(C[C@H]2NC(=O)/C=C/C[C@@H](C(=O)/C=C/c3ccccc3)OC(=O)[C@H](CC(C)C)OC(=O)[C@H](C)CNC2=O)cc1 | > 10 | > 10 | > 10 | > 10 | > 10 | –
23 | COc1ccc(C[C@H]2NC(=O)/C=C/C[C@@H](C(=O)/C=C\c3ccccc3)OC(=O)[C@H](CC(C)C)OC(=O)CCNC2=O)cc1 | > 10 | > 10 | > 10 | > 10 | > 10 | –
24 | COc1ccc(C[C@H]2NC(=O)/C=C/C[C@@H](CC#Cc3ccccc3)OC(=O)[C@H](CC(C)C)OC(=O)[C@@H](C)CNC2=O)cc1 | > 10 | > 10 | > 10 | > 10 | > 10 | –
25 | COc1ccc(C[C@H]2NC(=O)/C=C/C[C@@H]([C@@H](C)[C@H]3O[C@@H]3c3ccccc3)OC(=O)[C@H](CC(C)C)OC(=O)[C@H](C)CNC2=O)cc1 | > 10 | 3 | > 10 | > 4 | > 10 | –
26 | COc1ccc(C[C@H]2NC(=O)/C=C/C[C@@H](C(=O)/C=C/c3ccccc3)OC(=O)[C@H](CC(C)C)OC(=O)CCNC2=O)cc1 | > 10 | > 10 | > 10 | > 10 | > 10 | –
27 | COc1ccc(C[C@H]2NC(=O)/C=C/C[C@@H](C/C=C/c3ccccc3)OC(=O)[C@H](CC(C)C)OC(=O)[C@H](C)CNC2=O)cc1 | > 10 | > 10 | > 10 | > 10 | > 10 | –
28 | COc1ccc(C[C@H]2NC(=O)/C=C/C[C@@H]([C@H](C)/C=C/c3ccccc3)OC(=O)[C@H](CC(C)C)OC(=O)[C@H](C)CNC2=O)cc1 | > 10 | > 10 | > 10 | > 10 | > 10 | –
29 | COc1ccc(C[C@H]2NC(=O)/C=C/C[C@@H](C(=O)C#Cc3ccccc3)OC(=O)[C@H](CC(C)C)OC(=O)[C@@H](C)CNC2=O)cc1 | > 10 | > 10 | > 10 | > 10 | > 10 | –
30 | COc1ccc(C[C@H]2NC(=O)/C=C/C[C@@H](C(=O)/C=C/c3ccccc3)OC(=O)[C@H](CC(C)C)OC(=O)[C@H](C)CNC2=O)cc1Cl | > 10 | > 10 | > 10 | > 10 | > 10 | –
31 | COc1ccc(C[C@H]2NC(=O)/C=C/C[C@@H](C(C#Cc3ccccc3)OS(C)(=O)=O)OC(=O)[C@H](CC(C)C)OC(=O)[C@@H](C)CNC2=O)cc1 (stereo partly specified) | > 10 | > 10 | > 10 | > 10 | > 10 | –
32 | COc1ccc(C[C@H]2NC(=O)/C=C/C[C@@H](C(C#Cc3ccccc3)OS(C)(=O)=O)OC(=O)[C@H](CC(C)C)OC(=O)CCNC2=O)cc1 (stereo partly specified) | > 10 | > 10 | > 10 | > 10 | > 10 | –
33 | COc1ccc(C[C@H]2NC(=O)/C=C/C[C@@H](C(O)C#Cc3ccccc3)OC(=O)[C@H](CC(C)C)OC(=O)[C@@H](C)CNC2=O)cc1 (stereo partly specified) | > 10 | > 10 | > 10 | > 10 | > 10 | –
34 | COc1ccc(C[C@H]2NC(=O)/C=C/C[C@@H](C(=O)C#Cc3ccccc3)OC(=O)[C@H](CC(C)C)OC(=O)CCNC2=O)cc1 | > 10 | > 10 | > 10 | > 10 | > 10 | –
35 | COc1ccc(C[C@H]2NC(=O)/C=C/C[C@@H](C(O)CCc3ccccc3)OC(=O)[C@H](CC(C)C)OC(=O)[C@H](C)CNC2=O)cc1 (stereo partly specified) | > 10 | > 10 | > 10 | > 10 | > 10 | –
36 | COc1ccc(C[C@H]2NC(=O)/C=C/C[C@@H]([C@](C)(O)C#Cc3ccccc3)OC(=O)[C@H](CC(C)C)OC(=O)CCNC2=O)cc1 | > 10 | > 10 | > 10 | > 10 | > 10 | –
37 | COc1ccc(C[C@H]2NC(=O)/C=C/C[C@@H](C(=O)[C@H]3O[C@@H]3c3ccccc3)OC(=O)[C@H](CC(C)C)OC(=O)[C@H](C)CNC2=O)cc1 | > 10 | > 10 | > 10 | > 10 | > 10 | –
